Each structure is given as a SMILES string. Where “and” joins values, the source holds several entries; their conditions need not be identical. Equal values may be shown once. Toxic doses and inconclusive results are not listed.

This assay relates to CD2F1 mice, L1210 leukemia ip, survival T/C. As to the kind of experiment: NCI In Vivo Anticancer Drug Screen. Data for tumor model L1210 Leukemia (intraperitoneal) in CD2F1 (CDF1) mice. The following applies: endpoint: mean survival time, higher = longer survival. The gist of the method: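 Each value reflects a quotient of treated over vehicle control outcomes in mice with a transplanted tumor.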

Where [1] appears, read: dose: 25.0 mg/kg/injection, schedule: Q01DX009 (ip), vehicle: saline with Tween-80.
The mark [2] stands for this setting: dose: 50.0 mg/kg/injection, schedule: Q01DX009 (ip), vehicle: saline with Tween-80.
Setting [3] is: dose: 100.0 mg/kg/injection, schedule: Q01DX009 (ip), vehicle: saline with Tween-80.
The mark [4] stands for this setting: dose: 100.0 mg/kg/injection, schedule: Q04DX002 (ip), vehicle: saline with Tween-80.
Setting [5] is: dose: 200.0 mg/kg/injection, schedule: Q04DX002 (ip), vehicle: saline with Tween-80.
Where [6] appears, read: dose: 100.0 mg/kg/injection, schedule: Q01DX001 (ip), vehicle: saline with Tween-80.
The mark [7] stands for this setting: dose: 100.0 mg/kg/injection, schedule: Q04DX003 (ip), vehicle: saline with Tween-80.
The mark [8] stands for this setting: dose: 200.0 mg/kg/injection, schedule: Q01DX001 (ip), vehicle: saline with Tween-80.
[9] abbreviates: dose: 400.0 mg/kg/injection, schedule: Q01DX001 (ip), vehicle: saline with Tween-80.
Setting [10] is: dose: 12.5 mg/kg/injection, schedule: Q01DX009 (ip), vehicle: saline.
Where [11] appears, read: dose: 25.0 mg/kg/injection, schedule: Q04DX003 (ip), vehicle: saline with Tween-80.
The mark [12] stands for this setting: dose: 12.5 mg/kg/injection, schedule: Q04DX003 (ip), vehicle: saline with Tween-80.

Turning to `CC1CC(=O)C2CC(Cl)CCC2(C)C1C` (stereo unspecified), the T/C by setting is: under setting [1], 97 % of control; under setting [2], 90 % of control; under setting [3], 94 % of control.

Regarding `CC1(C)OC(C(COC(c2ccccc2)(c2ccccc2)c2ccccc2)OC(=O)c2ccccc2)C(C(COC(c2ccccc2)(c2ccccc2)c2ccccc2)OC(=O)c2ccccc2)O1` (stereo unspecified), the T/C is 98 % of control (dose: 50.0 mg/kg/injection, schedule: Q01DX009 (ip), vehicle: Klucel (hydroxypropylcellulose) (HPC)); 94 % of control (dose: 100.0 mg/kg/injection, schedule: Q01DX009 (ip), vehicle: Klucel (hydroxypropylcellulose) (HPC)); 94 % of control (dose: 200.0 mg/kg/injection, schedule: Q01DX009 (ip), vehicle: Klucel (hydroxypropylcellulose) (HPC)).

Turning to `COc1ccc(NC(=O)Nc2cccc(Cl)c2)c(OC)c1`, the T/C is, setting by setting: under setting [4], 88 % of control; under setting [5], 98 % of control.

For `CC(F)(F)Cc1ccccc1`, the T/C is 110 % of control under setting [6]; 98 % of control under setting [7]; 102 % of control under setting [8]; 95 % of control (dose: 200.0 mg/kg/injection, schedule: Q04DX003 (ip), vehicle: saline with Tween-80); 102 % of control under setting [9]; 98 % of control (dose: 400.0 mg/kg/injection, schedule: Q04DX003 (ip), vehicle: saline with Tween-80).

As to `Nc1ccc(C(=O)Nc2ccc(OCc3nc(N)nc(N)c3-c3ccc(Cl)cc3)cc2)cc1`, the T/C was 97 % of control under setting [6], 93 % of control under setting [8] and 95 % of control under setting [9].

In the case of `CC1(C)N=C(N)N=C(N)N1c1cccc(OCCOc2cccc(N)c2)c1`, the T/C by setting is: (dose: 25.0 mg/kg/injection, schedule: Q01DX001 (ip), vehicle: Klucel (hydroxypropylcellulose) (HPC)) 97 % of control; (dose: 50.0 mg/kg/injection, schedule: Q01DX001 (ip), vehicle: Klucel (hydroxypropylcellulose) (HPC)) 97 % of control.

Consider `Nc1nc(N)c2c(n1)NCN(Cc1ccc(Cl)cc1Cl)C2`, for which the T/C was 105 % of control (dose: 0.75 mg/kg/injection, schedule: Q01DX009 (ip), vehicle: water); 94 % of control (dose: 1.5 mg/kg/injection, schedule: Q01DX009 (ip), vehicle: water); 100 % of control (dose: 3.0 mg/kg/injection, schedule: Q01DX009 (ip), vehicle: water); 100 % of control (dose: 6.0 mg/kg/injection, schedule: Q01DX009 (ip), vehicle: water); 96 % of control (dose: 12.0 mg/kg/injection, schedule: Q01DX009 (ip), vehicle: water); 100 % of control (dose: 24.0 mg/kg/injection, schedule: Q01DX009 (ip), vehicle: water). In addition, the T/C was 96 % of control (dose: 37.5 mg/kg/injection, schedule: Q01DX009 (ip), vehicle: water) and 91 % of control (dose: 75.0 mg/kg/injection, schedule: Q01DX009 (ip), vehicle: water).

With `CCCCCCCCCCCCNC(=O)c1ccc[n+](C)c1`, the T/C was 88 % of control under setting [10]; 93 % of control (dose: 12.5 mg/kg/injection, schedule: Q04DX003 (ip), vehicle: saline); 97 % of control (dose: 25.0 mg/kg/injection, schedule: Q04DX003 (ip), vehicle: saline); 101 % of control (dose: 50.0 mg/kg/injection, schedule: Q04DX003 (ip), vehicle: saline).

With `COCCN=C(N)C(N)=NCCOC`, the T/C by setting is: (dose: 100.0 mg/kg/injection, schedule: Q01DX009 (ip), vehicle: saline) 105 % of control; (dose: 200.0 mg/kg/injection, schedule: Q01DX009 (ip), vehicle: saline) 103 % of control; (dose: 400.0 mg/kg/injection, schedule: Q01DX009 (ip), vehicle: saline) 102 % of control.

In the case of `CC(CCC1OC2CC3C4CCC5CC(OC(=O)c6ccccc6)CCC5(C)C4CCC3(C)C2C1C)COC(=O)c1ccccc1` (stereo unspecified), the T/C was 90 % of control under setting [4]; 94 % of control under setting [5]; 86 % of control (dose: 400.0 mg/kg/injection, schedule: Q04DX002 (ip), vehicle: saline with Tween-80).

As to `CC(C)=CCN1C(=O)c2ccccc2C1=O`, the T/C under setting [1] is 102 % of control; the T/C under setting [11] was 101 % of control; the T/C under setting [2] was 98 % of control; the T/C (dose: 50.0 mg/kg/injection, schedule: Q04DX003 (ip), vehicle: saline with Tween-80) was 101 % of control; the T/C under setting [3] was 96 % of control; the T/C under setting [7] was 110 % of control.

Consider `ON=C1c2c(ccc3ccccc23)-c2ccc3ccccc3c21`, for which the T/C is 95 % of control under setting [6]; 98 % of control under setting [3]; 96 % of control under setting [8]; 95 % of control (dose: 200.0 mg/kg/injection, schedule: Q01DX009 (ip), vehicle: saline with Tween-80); 102 % of control under setting [9]; 93 % of control (dose: 400.0 mg/kg/injection, schedule: Q01DX009 (ip), vehicle: saline with Tween-80).

In the case of `O=C1Nc2ccccc2/C1=C/c1c[nH]c2ccccc12`, the T/C (dose: 50.0 mg/kg/injection, schedule: Q04DX002 (ip), vehicle: saline with Tween-80) was 103 % of control; the T/C under setting [4] is 90 % of control; the T/C under setting [5] is 107 % of control.

Regarding `COc1ccc(Cc2nc(C)cc3cc(OC)c(OC)cc23)cc1OC`, the T/C (dose: 25.0 mg/kg/injection, schedule: Q01DX009 (ip), vehicle: water) was 92 % of control.

Take `O=C1C=C(Cl)C(=O)N1c1cccc(Cl)c1`: the T/C is 104 % of control (dose: 6.25 mg/kg/injection, schedule: Q04DX003 (ip), vehicle: saline with Tween-80); 95 % of control under setting [12]; 95 % of control under setting [11].

Take `Nc1ccn(C2CC(CO)C(O)C2O)c(=O)n1` (stereo unspecified): for the setting “dose: 150.0 mg/kg/injection, schedule: Q01DX009 (ip), vehicle: saline”, the T/C is 204 % of control.

As to `COC(=O)C12OCC34C(CC5C(C)=C(O)C(=O)CC5(C)C3C(O)C1O)OC(=O)C(OC(=O)C=C(C)C)C24` (stereo unspecified), the T/C was 103 % of control (dose: 125.0 micrograms/kg/injection, schedule: Q01DX009 (ip), vehicle: saline + alcohol); 100 % of control (dose: 250.0 micrograms/kg/injection, schedule: Q01DX009 (ip), vehicle: saline + alcohol); 98 % of control (dose: 500.0 micrograms/kg/injection, schedule: Q01DX009 (ip), vehicle: saline + alcohol); 104 % of control (dose: 1000.0 micrograms/kg/injection, schedule: Q01DX009 (ip), vehicle: saline + alcohol); 101 % of control (dose: 2000.0 micrograms/kg/injection, schedule: Q01DX009 (ip), vehicle: saline + alcohol); 115 % of control (dose: 4000.0 micrograms/kg/injection, schedule: Q01DX009 (ip), vehicle: saline + alcohol).

Regarding `O=[N+]([O-])/C(=C/C=C/c1ccccc1)c1ccccc1`, the T/C is, setting by setting: under setting [6], 101 % of control; under setting [8], 103 % of control; under setting [9], 91 % of control.

Take `CS(=O)(=O)CC#N`: the T/C is 91 % of control and 109 % of control (dose: 6.25 mg/kg/injection, schedule: Q04DX002 (ip), vehicle: saline with Tween-80); 93 % of control (dose: 12.5 mg/kg/injection, schedule: Q01DX001 (ip), vehicle: saline with Tween-80); 92 % of control under setting [10]; 91 % of control and 102 % of control (dose: 12.5 mg/kg/injection, schedule: Q04DX002 (ip), vehicle: saline with Tween-80); 97 % of control under setting [12]; 106 % of control (dose: 25.0 mg/kg/injection, schedule: Q01DX001 (ip), vehicle: saline with Tween-80). The T/C was 92 % of control and 98 % of control (dose: 25.0 mg/kg/injection, schedule: Q01DX009 (ip), vehicle: saline); 94 % of control and 101 % of control (dose: 25.0 mg/kg/injection, schedule: Q04DX002 (ip), vehicle: saline with Tween-80); 99 % of control and 103 % of control (dose: 25.0 mg/kg/injection, schedule: Q04DX002 (ip), vehicle: saline); 97 % of control under setting [11]; 100 % of control (dose: 50.0 mg/kg/injection, schedule: Q01DX001 (ip), vehicle: saline with Tween-80); 100 % of control (dose: 50.0 mg/kg/injection, schedule: Q04DX002 (ip), vehicle: saline).

For `CCOC(=O)Nc1cccc(C(F)(F)F)c1`, the T/C reads like this: (dose: 100.0 mg/kg/injection, schedule: Q01DX009 (ip), vehicle: other) 97 % of control; (dose: 200.0 mg/kg/injection, schedule: Q01DX009 (ip), vehicle: other) 101 % of control; (dose: 400.0 mg/kg/injection, schedule: Q01DX009 (ip), vehicle: other) 107 % of control.

These data come from PubChem BioAssay AID256 (DTP/NCI, 2004).
